From patent US20120178766A1, “FUROPYRIMIDINEDIONE DERIVATIVES AS TRPAI MODULATORS” (priority 2009, published 2012)
pIC50: −log10 of the molar value.

Columns and labels:
rat TRPA1 = target: T1, rat TRPA1 (Rattus norvegicus, UniProt Q6RI86); experiment: 45Calcium uptake assay: inhibition of AITC induced cellular uptake of radioactive calcium, rat TRPA1 expressing CHO cells; type: cell-based; settings: AITC 10 μM; for inhibition at 10 µM: 10.0 μM compound, read-out: rat TRPA1 Percentage inhibition at 10.0 μM; for inhibition at 1 µM: read-out: rat TRPA1 Percentage inhibition; for pIC50: class symbols
T1 construct: expressed in transfected cells; host or cells: CHO cells (Zeocin selection)
Protocol: (§1) Screening for TRPA1 Antagonist Using the ^45Calcium Uptake Assay:
(§2) The inhibition of TRPA1 receptor activation was measured as inhibition of allyl isothiocyanate (AITC) induced cellular uptake of radioactive calcium.
Test compounds were dissolved in 100% DMSO to prepare 10 mM stock and then diluted using plain medium with 0.1% BSA and 1.8 mM CaCl2 to get the desired concentration. The final concentration of DMSO in the reaction was 0.5% (v/v). […] Rat TRPA1 expressing CHO cells were grown in F-12 DMEM medium with 10% FBS, 1% penicillin-streptomycin solution, and 400 μg/ml of Zeocin. […] Cells were treated with the test compounds for 10 minutes followed by the addition of AITC at a final concentration of 30 μM (for human TRPA1) and/or 10 μM (for rat TRPA1) and 5 μCi/ml ^45Ca^+2 for 3 minutes. Cells were washed and lysed using a buffer containing 1% Triton X-100, 0.1% deoxycholate and 0.1% SDS. Radioactivity in the lysate was measured in a Packard TopCount after addition of liquid scintillant.
(§3) Concentration response curves were plotted as a % of maximal response obtained in the absence of test antagonist. IC50 values can be calculated from concentration response curve by nonlinear regression analysis using GraphPad PRISM software.

human TRPA1 = target: T2, human TRPA1 (Homo sapiens, UniProt O75762); experiment: 45Calcium uptake assay: inhibition of AITC induced cellular uptake of radioactive calcium, human TRPA1 expressing CHO cells; type: cell-based; settings: AITC 30 μM; for inhibition at 1 µM: 1.0 μM compound, read-out: human TRPA1 Percentage inhibition at 1.0 μM; for inhibition at 10 µM: 10.0 μM compound, read-out: human TRPA1 Percentage inhibition at 10.0 μM; for pIC50: class symbols
T2 construct: expressed in transfected cells; host or cells: CHO cells (G-418 selection)
From the text: The illustrative examples of the present invention are screened for TRPA1 activity according to a modified procedure described in (a) Tóth, A. et al. Life Sciences, 2003, 73, 487-498. (b) McNamara C, R. et al, Proc. Natl. Acad. Sci. U.S.A., 2007, 104, 13525-13530. The screening of the compounds can be carried out by other methods and procedures known to persons skilled in the art.
as §1, §2
Test compounds were dissolved in 100% DMSO to prepare 10 mM stock and then diluted using plain medium with 0.1% BSA and 1.8 mM CaCl2 to get the desired concentration. The final concentration of DMSO in the reaction was 0.5% (v/v). Human TRPA1 expressing CHO cells were grown in F-12 DMEM medium with 10% FBS, 1% penicillin-streptomycin solution, and 400 μg/ml of G-418. Rat TRPA1 expressing CHO cells were grown in F-12 DMEM medium with 10% FBS, 1% penicillin-streptomycin solution, and 400 μg/ml of Zeocin. Cells were seeded 24 h prior to the assay in 96 well plates so as to get ˜50,000 cells per well on the day of experiment. Cells were treated with the test compounds for 10 minutes followed by the addition of AITC at a final concentration of 30 μM (for human TRPA1) and/or 10 μM (for rat TRPA1) and 5 μCi/ml ^45Ca^+2 for 3 minutes. Cells were washed and lysed using a buffer containing 1% Triton X-100, 0.1% deoxycholate and 0.1% SDS. Radioactivity in the lysate was measured in a Packard TopCount after addition of liquid scintillant. (Toth et al, Life Sciences (2003) 73, 487-498; McNamara C R et al, Proceedings of the National Academy of Sciences, (2007) 104, 13525-13530).
as §3

T1 sequence (Q6RI86 whole entry): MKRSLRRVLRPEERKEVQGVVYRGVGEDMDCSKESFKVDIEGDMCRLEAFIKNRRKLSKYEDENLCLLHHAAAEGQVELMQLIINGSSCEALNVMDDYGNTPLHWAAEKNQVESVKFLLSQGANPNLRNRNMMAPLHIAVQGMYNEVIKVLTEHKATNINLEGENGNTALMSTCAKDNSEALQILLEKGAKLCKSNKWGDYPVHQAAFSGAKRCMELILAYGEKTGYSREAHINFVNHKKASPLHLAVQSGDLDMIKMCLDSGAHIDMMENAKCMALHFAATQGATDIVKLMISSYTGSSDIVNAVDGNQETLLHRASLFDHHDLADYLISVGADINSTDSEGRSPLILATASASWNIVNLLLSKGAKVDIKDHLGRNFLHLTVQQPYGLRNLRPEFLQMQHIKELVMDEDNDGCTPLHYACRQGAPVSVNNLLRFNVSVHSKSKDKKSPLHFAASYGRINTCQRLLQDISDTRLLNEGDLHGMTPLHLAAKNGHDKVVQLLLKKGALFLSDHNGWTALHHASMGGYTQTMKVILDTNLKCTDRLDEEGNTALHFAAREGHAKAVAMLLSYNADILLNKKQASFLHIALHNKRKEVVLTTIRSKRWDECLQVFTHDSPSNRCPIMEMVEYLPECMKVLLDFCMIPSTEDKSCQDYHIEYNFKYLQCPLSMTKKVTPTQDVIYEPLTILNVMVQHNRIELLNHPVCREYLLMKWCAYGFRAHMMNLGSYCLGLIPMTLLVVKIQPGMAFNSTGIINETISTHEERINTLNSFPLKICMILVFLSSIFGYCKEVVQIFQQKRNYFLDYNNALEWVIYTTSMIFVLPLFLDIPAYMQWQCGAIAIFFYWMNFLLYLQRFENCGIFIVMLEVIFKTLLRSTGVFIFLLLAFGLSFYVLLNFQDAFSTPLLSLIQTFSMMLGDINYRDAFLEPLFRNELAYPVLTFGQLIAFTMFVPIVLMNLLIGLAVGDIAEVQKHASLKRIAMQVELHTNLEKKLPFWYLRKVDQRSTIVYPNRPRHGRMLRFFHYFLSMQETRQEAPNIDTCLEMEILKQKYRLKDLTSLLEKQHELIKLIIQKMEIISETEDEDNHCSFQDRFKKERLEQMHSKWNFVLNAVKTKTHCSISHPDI
T2 sequence (O75762 whole entry): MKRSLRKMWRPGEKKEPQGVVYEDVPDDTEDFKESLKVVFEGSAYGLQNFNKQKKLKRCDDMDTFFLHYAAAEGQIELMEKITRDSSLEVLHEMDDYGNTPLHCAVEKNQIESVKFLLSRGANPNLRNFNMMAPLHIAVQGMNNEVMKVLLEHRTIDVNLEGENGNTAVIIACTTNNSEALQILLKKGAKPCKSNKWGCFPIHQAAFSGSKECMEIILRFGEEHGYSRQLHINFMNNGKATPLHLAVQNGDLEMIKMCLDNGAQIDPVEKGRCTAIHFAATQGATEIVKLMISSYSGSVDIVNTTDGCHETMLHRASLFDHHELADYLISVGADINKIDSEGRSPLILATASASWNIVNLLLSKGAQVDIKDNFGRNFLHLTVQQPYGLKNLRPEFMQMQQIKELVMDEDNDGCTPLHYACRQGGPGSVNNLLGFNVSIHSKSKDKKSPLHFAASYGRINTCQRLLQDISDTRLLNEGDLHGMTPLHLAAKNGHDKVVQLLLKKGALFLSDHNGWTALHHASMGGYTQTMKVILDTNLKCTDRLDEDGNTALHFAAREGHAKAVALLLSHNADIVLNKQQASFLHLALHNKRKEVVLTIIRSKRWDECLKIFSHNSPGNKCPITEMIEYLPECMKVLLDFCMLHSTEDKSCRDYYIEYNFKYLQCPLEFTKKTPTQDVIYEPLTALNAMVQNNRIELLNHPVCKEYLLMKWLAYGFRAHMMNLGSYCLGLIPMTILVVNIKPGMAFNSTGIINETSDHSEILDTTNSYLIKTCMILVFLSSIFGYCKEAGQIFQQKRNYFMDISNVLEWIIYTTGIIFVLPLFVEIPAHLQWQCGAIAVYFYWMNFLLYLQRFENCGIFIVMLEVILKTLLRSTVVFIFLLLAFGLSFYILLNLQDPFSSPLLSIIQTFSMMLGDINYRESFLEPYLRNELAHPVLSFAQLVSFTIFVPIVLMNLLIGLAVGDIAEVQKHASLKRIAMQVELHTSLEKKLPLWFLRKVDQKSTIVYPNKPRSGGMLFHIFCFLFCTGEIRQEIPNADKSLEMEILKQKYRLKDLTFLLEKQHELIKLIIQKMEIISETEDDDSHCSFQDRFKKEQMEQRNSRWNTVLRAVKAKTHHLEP

| SMILES | inhibition at 10 µM (rat TRPA1) | inhibition at 1 µM (rat TRPA1) | pIC50 (rat TRPA1) | inhibition at 1 µM (human TRPA1) | inhibition at 10 µM (human TRPA1) | pIC50 (human TRPA1) |
| --- | --- | --- | --- | --- | --- | --- |
| Cn1c(=O)c2c(CC(=O)Nc3nc(-c4ccc(F)c(C(F)(F)F)c4)cs3)coc2n(C)c1=O [Example 15, N1-{4-[4-Fluoro-3-(trifluoromethyl)phenyl]-1,3-thiazol-2-yl}-2-(1,3-dimethyl-2,4-dioxo-1,2,3,4-tetrahydrofuro[2,3-d]pyrimidin-5-yl)acetamide] | 99% | 100% | > 7.30 | 99.9% | 99.8% | > 7.30 |
| Cn1c(=O)c2c(CC(=O)Nc3nc(-c4ccc(F)c(OC(F)(F)F)c4)cs3)coc2n(C)c1=O [Example 16, N1-{4-[4-Fluoro-3-(trifluoromethoxy)phenyl]-1,3-thiazol-2-yl}-2-(1,3-dimethyl-2,4-dioxo-1,2,3,4-tetrahydrofuro[2,3-d]pyrimidin-5-yl)acetamide] | 98.6% | 100% | > 7.30 | 98.5% | 99.2% | > 7.30 |
| Cn1c(=O)c2c(CC(=O)Nc3nc(-c4ccc(OC(F)(F)F)c(F)c4)cs3)coc2n(C)c1=O [Example 17, N1-{4-[3-Fluoro-4-(trifluoromethoxy)phenyl]-1,3-thiazol-2-yl}-2-(1,3-dimethyl-2,4-dioxo-1,2,3,4-tetrahydrofuro[2,3-d]pyrimidin-5-yl)acetamide] | 99.8% | 97.7% | 7.00 to 7.30 | 99.9% | 100% | > 7.30 |
| Cn1c(=O)c2c(CC(=O)Nc3nc(-c4ccc(Cl)c(C(F)(F)F)c4)cs3)coc2n(C)c1=O [Example 18, N1-{4-[4-Chloro-3-(trifluoromethyl)phenyl]-1,3-thiazol-2-yl}-2-(1,3-dimethyl-2,4-dioxo-1,2,3,4-tetrahydrofuro[2,3-d]pyrimidin-5-yl)acetamide] | 94.1% | 99.9% | 7.00 to 7.30 | 99.9% | 100% | > 7.30 |
| Cn1c(=O)c2c(CC(=O)Nc3nc(-c4ccc(Cl)c(OC(F)(F)F)c4)cs3)coc2n(C)c1=O [Example 19, N1-{4-[4-Chloro-3-(trifluoromethoxy)phenyl]-1,3-thiazol-2-yl]-2-(1,3-dimethyl-2,4-dioxo-1,2,3,4-tetrahydrofuro[2,3-d]pyrimidin-5-yl)acetamide] | 98.2% | 98.9% | 7.00 to 7.30 | 99.9% | 100% | > 7.30 |
| Cn1c(=O)c2c(CC(=O)Nc3nc(-c4cccc(C(F)(F)F)c4F)cs3)coc2n(C)c1=O [Example 20, N1-{4-[2-Fluoro-3-(trifluoromethyl)phenyl]-1,3-thiazol-2-yl}-2-(1,3-dimethyl-2,4-dioxo-1,2,3,4-tetrahydrofuro[2,3-d]pyrimidin-5-yl)acetamide] | 99.8% | 96.8% | > 7.30 | 98.5% | 97.5% | > 7.30 |
| Cn1c(=O)c2c(CC(=O)Nc3nc(-c4cc(F)cc(C(F)(F)F)c4)cs3)coc2n(C)c1=O [Example 21, N1-{4-[3-Fluoro-5-(trifluoromethyl)phenyl]-1,3-thiazol-2-yl}-2-(1,3-dimethyl-2,4-dioxo-1,2,3,4-tetrahydrofuro[2,3-d]pyrimidin-5-yl)acetamide] | 99.9% | 98.9% | > 7.30 | 99.8% | 99.8% | > 7.30 |
| Cn1c(=O)c2c(CC(=O)Nc3nc(-c4ccc(C(F)(F)F)cc4F)cs3)coc2n(C)c1=O [Example 22, N1-{4-[2-Fluoro-4-(trifluoromethyl)phenyl]-1,3-thiazol-2-yl}-2-(1,3-dimethyl-2,4-dioxo-1,2,3,4-tetrahydrofuro[2,3-d]pyrimidin-5-yl)acetamide] | 100% | 100% |  | 99.3% | 98.5% | > 7.30 |
| Cn1c(=O)c2c(CC(=O)Nc3nc(-c4ccc(OC(F)F)c(F)c4)cs3)coc2n(C)c1=O [Example 23, N1-[4-(3-Fluoro-4-difluoromethoxyphenyl)-1,3-thiazol-2-yl]-2-(1,3-dimethyl-2,4-dioxo-1,2,3,4-tetrahydrofuro[2,3-d]pyrimidin-5-yl)acetamide] | 95.5% | 92.6% | < 7.00 | 96.3% | 99% | > 7.30 |
| Cn1c(=O)c2c(CC(=O)Nc3nc(-c4ccc(OC(F)F)c(Cl)c4)cs3)coc2n(C)c1=O [Example 24, N1-[4-(3-Chloro-4-difluoromethoxyphenyl)-1,3-thiazol-2-yl]-2-(1,3-dimethyl-2,4-dioxo-1,2,3,4-tetrahydrofuro[2,3-d]pyrimidin-5-yl)acetamide] | 99.6% | 100% | < 7.00 | 97.4% | 99.8% | > 7.30 |
| Cn1c(=O)c2c(CC(=O)Nc3nc(-c4ccc(OCC(C)(C)C)c(F)c4)cs3)coc2n(C)c1=O [Example 26, N1-{4-[4-(2,2-Dimethylpropoxy)-3-fluorophenyl]-1,3-thiazol-2-yl}-2-(1,3-dimethyl-2,4-dioxo-1,2,3,4-tetrahydrofuro[2,3-d]pyrimidin-5-yl)acetamide] | 99.9% | 98.6% |  | 97.6% | 99.3% | > 7.30 |
| Cn1c(=O)c2c(CC(=O)Nc3nc(-c4ccc(OCC(C)(C)C)c(Cl)c4)cs3)coc2n(C)c1=O [Example 27, N1-{4-[3-Chloro-4-(2,2-dimethylpropoxy)phenyl]-1,3-thiazol-2-yl}-2-(1,3-dimethyl-2,4-dioxo-1,2,3,4-tetrahydrofuro[2,3-d]pyrimidin-5-yl)acetamide] | 100% | 93.1% |  | 97.1% | 99.2% | < 7.00 |
| Cn1c(=O)c2c(CC(=O)Nc3nc(-c4ccc(OCC(C)(C)C)c(Br)c4)cs3)coc2n(C)c1=O [Example 28, N1-{4-[3-Bromo-4-(2,2-dimethylpropoxy)phenyl]-1,3-thiazol-2-yl}-2-(1,3-dimethyl-2,4-dioxo-1,2,3,4-tetrahydrofuro[2,3-d]pyrimidin-5-yl)acetamide] | 100% | 98.5% |  | 96.7% | 99.3% | < 7.00 |
| Cn1c(=O)c2c(CC(=O)Nc3nc(-c4ccc(OCC(F)(F)F)c(F)c4)cs3)coc2n(C)c1=O [Example 30, N1-{4-[3-Fluoro-4-(2,2,2-trifluoroethoxy)phenyl]-1,3-thiazol-2-yl}2-(1,3-dimethyl-2,4-dioxo-1,2,3,4-tetrahydrofuro[2,3-d]pyrimidin-5-yl)acetamide] | 100% | 97.1% | < 7.00 | 97.4% | 100% | > 7.30 |
| Cn1c(=O)c2c(CC(=O)Nc3nc(-c4ccc(OCC(F)(F)F)c(Cl)c4)cs3)coc2n(C)c1=O [Example 31, N1-{4-[3-Chloro-4-(2,2,2-trifluoroethoxy)phenyl]-1,3-thiazol-2-yl}2-(1,3-dimethyl-2,4-dioxo-1,2,3,4-tetrahydrofuro[2,3-d]pyrimidin-5-yl)acetamide] | 100% | 96.8% | 7.00 to 7.30 | 98.3% | 99.8% | > 7.30 |
